Article PMC9154192 (PLoS Biology, 2022)
Several values for one entry are separate records, joined by “and”; a condition that tells them apart may be missing. Equal values may be shown once. Read-outs that look alike come from different tables or passages of the source.

What was measured:
[1] = system: XDR M. tuberculosis; type: cell-based, Mycobacterium tuberculosis
[2] = system: M. tuberculosis H37Rv; type: cell-based, Mycobacterium tuberculosis; conditions: for RFU/200 μl (replicates1-3), single values / RFU/ml (×104) / RFU/200 μl (average): Fig 2A
[3] = system: XDR M. tuberculosis; type: cell-based, Mycobacterium tuberculosis; remark: listed apart in the source
[4] = system: GFP-expressing M. tuberculosis; type: cell-based, Mycobacterium tuberculosis; conditions: 1 μg/ml
[5] = system: M. tuberculosis H37Rv; type: in vivo, BALB/c mice; set-up: Efficacy in BALB/C mouse model of pulmonary tuberculosis, Average / Efficacy in BALB/C mouse model of pulmonary tuberculosis, values of mice 1-6: unit not given here
[6] = type: in vivo, Crl:CD SD rats; conditions: single oral dose up to 2,000 mg/kg, SD rats, 2 weeks
Method: Toxicity studies were conducted at Biotoxtech (Korea) under review and approval from IACUC (170842, 180144, 170889) of Biotoxtech. All animals used in the toxicity test were purchased from OrientBio (Korea).
For acute toxicity study with a single oral administration, 6-week-old Crl:CD SD rats were used. For PP1S, a total of 8 groups (n = 4 rats/group) were used (0, 500, 1,000, and 2,000 mg/kg for females and males, respectively). For PP2S, a total of 4 groups (n = 5 rats/group) were used (0 and 2,000 mg/kg for females and males, respectively). […] Corn oil (Sigma, USA) was used as the vehicle. Control animals were treated only with the same volume of the vehicle.

[7] = system: M. tuberculosis H37Rv; assay: Luminescence-based microbial cell viability assay; set-up: species or system Mycobacterium tuberculosis; conditions: for RLU/50ul (replicates1-3), single values / RLU/ml (×100) / RLU/50ul (average): Fig 2C
[8] = system: intestinal microbiome; assay: Gut microbiome, 16s rRNA gene-based metagenomics analysis of feces; type: in vivo, BALB/c mice; conditions: 30 mg/kg oral once a day for 7 days, BALB/c mice, feces
Method: Six-week-old BALB/c female mice were used for this study (6 mice for each group). Each drug was administered orally at 30 mg/kg once daily for 7 days. Stool was collected, and 16 rRNA gene-based metagenomics analysis was performed. Corn oil was used as the vehicle. The drug-free group received corn oil only. This animal experiment was conducted with the approval of the IACUC of the Soonchunhyang University (approval number: SCH21-0011). Microbiome analysis of collected feces was carried out as previously described with some modifications. Total DNA was extracted from the stool using the QIAamp DNA stool mini kit (Qiagen, Germany) after mechanical disruption using lysing matrix B tubes (MP Biomedicals, USA). V4 region of 16S RNA gene was amplified from extracted DNA with the following primers: forward primer ([…]) and reverse primer ([…]). PCR was performed using the Kappa HiFi hot start kit (KAPA Biosystems, USA) for 16s gene amplification and library preparation. A dsDNA HS assay kit and Qubit 4 fluorimeter (Invitrogen, USA) were used for DNA quantification. After each step, quality was checked using Agilent High Sensitivity DNA Kit and Agilent Bioanalyzer 2100 (Agilent Technologies, USA). Clean-up was performed using AMPure XP beads (Beckman Coulter, UK). The metagenomic library was prepared using a Nextera XT DNA Library Prep Kit (Illumina, USA) and loaded into an iSeq-100 reagent cartridge (Illumina, USA) together with a PhiX Control library (Illumina, USA). A 300-bp paired-end sequencing was performed on an iSeq-100 platform (Illumina, USA). Sequencing data were analyzed using the EzBioCloud server (Chunlab, Korea).

[9] = Acute oral toxicity test in mice; type: in vivo, BALB/c mice; conditions: single oral, 5 mice; for Deaths of mice, Days after dosing 0: day 0; for Deaths of mice, Days after dosing 1: day 1; for Deaths of mice, Days after dosing 2: day 2; for Deaths of mice, Days after dosing 3: day 3; for Deaths of mice, Days after dosing 4: day 4; for Deaths of mice, Days after dosing 5: day 5; for Deaths of mice, Days after dosing 6: day 6; for Deaths of mice, Days after dosing 7: day 7; for Deaths of mice, Days after dosing 8: day 8; for Deaths of mice, Days after dosing 9: day 9; for Deaths of mice, Days after dosing 10: day 10; for Deaths of mice, Days after dosing 11: day 11; for Deaths of mice, Days after dosing 12: day 12; for Deaths of mice, Days after dosing 13: day 13; for Deaths of mice, Days after dosing 14: day 14
Method: This experiment was conducted in a toxicity test at Soonchunhyang University's Animal Biological Safety Level 2 (ABSL-2) facility. The study protocol was reviewed and approved by Soonchunhyang University Animal Ethics Committee. Six-week-old female BALB/c were purchased from Koatech (Pyeongtaek, Korea) and five mice per group were tested. Drugs were orally administered once using a zonde and observed for two weeks. Corn oil (Sigma, USA) was used as the vehicle.

[10] = drug conc. 0.39, average of each replicate set
[11] = drug conc. 0.78, average of each replicate set
[12] = drug conc. 1.56, average of each replicate set

CCCCOc1ccc2cc(CN3C(=O)CC[C@H]3C(=O)OC)c3cc(OC)c(OC)cc3c2c1 [PP2S, Methyl (S)-1-((3-butoxy-6,7-dimethoxyphenanthren-9-yl)methyl)-5-oxopyrrolidine-2-carboxylate]
RFU/200 μl (replicates1-3), single values [1]: 9970 RFU/200 μl and 10020 RFU/200 μl and 9360 RFU/200 μl and 9560 RFU/200 μl and 10400 RFU/200 μl and 10740 RFU/200 μl and 10810 RFU/200 μl and 10890 RFU/200 μl and 9990 RFU/200 μl and 20170 RFU/200 μl and 19980 RFU/200 μl and 20200 RFU/200 μl and 19820 RFU/200 μl and 20260 RFU/200 μl and 22530 RFU/200 μl and 22620 RFU/200 μl and 22580 RFU/200 μl and 20070 RFU/200 μl and 37150 RFU/200 μl and 37370 RFU/200 μl and 42810 RFU/200 μl and 39680 RFU/200 μl and 39960 RFU/200 μl and 41160 RFU/200 μl and 41210 RFU/200 μl and 41220 RFU/200 μl and 37280 RFU/200 μl
concentration with significant antitubercular effect [1]: 0.39 µg/mL
RFU/200 μl (replicates1-3), single values ([2]; drug conc. 0.39): 54850 RFU/200 μl and 54820 RFU/200 μl and 52200 RFU/200 μl and 52110 RFU/200 μl and 58720 RFU/200 μl and 54260 RFU/200 μl and 54210 RFU/200 μl and 54470 RFU/200 μl and 54870 RFU/200 μl
RFU/ml (×104) ([2]; drug conc. 0.39): 27.3 RFU/ml (×104)
RFU/200 μl (average) [2, 10]: 54343 RFU/200 μl and 54313 RFU/200 μl and 54847 RFU/200 μl
RFU/200 μl (replicates1-3), single values ([2]; drug conc. 0.78): 20330 RFU/200 μl and 20390 RFU/200 μl and 21500 RFU/200 μl and 21380 RFU/200 μl and 21640 RFU/200 μl and 20670 RFU/200 μl and 20960 RFU/200 μl and 20360 RFU/200 μl and 20370 RFU/200 μl
RFU/ml (×104) ([2]; drug conc. 0.78): 10.4 RFU/ml (×104)
RFU/200 μl (average) [2, 11]: 21507 RFU/200 μl and 20663 RFU/200 μl and 20363 RFU/200 μl
RFU/200 μl (replicates1-3), single values ([2]; drug conc. 1.56): 8330 RFU/200 μl (2×) and 8470 RFU/200 μl and 8750 RFU/200 μl and 8670 RFU/200 μl and 8690 RFU/200 μl and 8240 RFU/200 μl and 8320 RFU/200 μl and 8390 RFU/200 μl
RFU/ml (×104) ([2]; drug conc. 1.56): 4.2 RFU/ml (×104)
RFU/200 μl (average) [2, 12]: 8703 RFU/200 μl and 8297 RFU/200 μl and 8397 RFU/200 μl
concentration with significant antitubercular effect ([2]; fluorescence-based assay): 1.56 µg/mL and 0.78 µg/mL
growth of M. tuberculosis in macrophages (CFU) [3]: significantly inhibited the growth
green signal of GFP-expressing M. tuberculosis in infected cells [4]: decrease in green signal
Efficacy in BALB/C mouse model of pulmonary tuberculosis, values of mice 1-6 ([5]; Fig 4C, group dose 30): 3500000 and 3600000 and 2100000 and 2300000 and 3900000 and 3400000
Efficacy in BALB/C mouse model of pulmonary tuberculosis, Average ([5]; Fig 4C, group dose 30, 6 mice): 3133333
Efficacy in BALB/C mouse model of pulmonary tuberculosis, Average ([5]; Fig 4C, group dose 100, 6 mice): 550000
bacterial burden in the lungs compared to control group ([5]; mouse, in vivo, po): significantly reduced
change in body weight compared to control group [6]: no significant change
clinical symptoms and death [6]: not observed
RLU/50ul (replicates1-3), single values ([7]; drug conc. 0.39): 1160 RLU/50ul and 1020 RLU/50ul and 2640 RLU/50ul and 2720 RLU/50ul and 2990 RLU/50ul and 1770 RLU/50ul and 1810 RLU/50ul and 1690 RLU/50ul and 1170 RLU/50ul
RLU/ml (×100) ([7]; drug conc. 0.39): 377.1 RLU/ml (×100)
RLU/50ul (average) [7, 10]: 2783 RLU/50ul and 1757 RLU/50ul and 1117 RLU/50ul
RLU/50ul (replicates1-3), single values ([7]; drug conc. 0.78): 410 RLU/50ul and 270 RLU/50ul and 850 RLU/50ul (2×) and 870 RLU/50ul and 620 RLU/50ul and 650 RLU/50ul and 580 RLU/50ul and 390 RLU/50ul
RLU/ml (×100) ([7]; drug conc. 0.78): 122.0 RLU/ml (×100)
RLU/50ul (average) [7, 11]: 857 RLU/50ul and 617 RLU/50ul and 357 RLU/50ul
RLU/50ul (replicates1-3), single values ([7]; drug conc. 1.56): 120 RLU/50ul and 160 RLU/50ul and 360 RLU/50ul and 370 RLU/50ul and 420 RLU/50ul and 110 RLU/50ul and 130 RLU/50ul (2×) and 170 RLU/50ul
RLU/ml (×100) ([7]; drug conc. 1.56): 43.8 RLU/ml (×100)
RLU/50ul (average) [7, 12]: 383 RLU/50ul and 137 RLU/50ul (2×)
concentration with significant antitubercular effect ([7]; luminescence-based assay): 1.56 µg/mL and 0.78 µg/mL
beta set-significance analysis, pair-wise comparison of gut microbiome [8]: not significant
difference in phylum or class level taxa compared to drug-free group [8]: did not significantly differ
phylogenetic diversity compared to drug-free control group [8]: no significant change
Deaths of mice, Days after dosing 0 ([9]; Dose 500 mg/kg): 0
Deaths of mice, Days after dosing 1 ([9]; Dose 500 mg/kg): 0
Deaths of mice, Days after dosing 2 ([9]; Dose 500 mg/kg): 0
Deaths of mice, Days after dosing 3 ([9]; Dose 500 mg/kg): 0
Deaths of mice, Days after dosing 4 ([9]; Dose 500 mg/kg): 0
Deaths of mice, Days after dosing 5 ([9]; Dose 500 mg/kg): 0
Deaths of mice, Days after dosing 6 ([9]; Dose 500 mg/kg): 0
Deaths of mice, Days after dosing 7 ([9]; Dose 500 mg/kg): 0
Deaths of mice, Days after dosing 8 ([9]; Dose 500 mg/kg): 0
Deaths of mice, Days after dosing 9 ([9]; Dose 500 mg/kg): 0
Deaths of mice, Days after dosing 10 ([9]; Dose 500 mg/kg): 0
Deaths of mice, Days after dosing 11 ([9]; Dose 500 mg/kg): 0
Deaths of mice, Days after dosing 12 ([9]; Dose 500 mg/kg): 0
Deaths of mice, Days after dosing 13 ([9]; Dose 500 mg/kg): 0
Deaths of mice, Days after dosing 14 ([9]; Dose 500 mg/kg): 0
Deaths of mice, Days after dosing 0 ([9]; Dose 1000 mg/kg): 0
Deaths of mice, Days after dosing 1 ([9]; Dose 1000 mg/kg): 0
Deaths of mice, Days after dosing 2 ([9]; Dose 1000 mg/kg): 0
Deaths of mice, Days after dosing 3 ([9]; Dose 1000 mg/kg): 0
Deaths of mice, Days after dosing 4 ([9]; Dose 1000 mg/kg): 0
Deaths of mice, Days after dosing 5 ([9]; Dose 1000 mg/kg): 0
Deaths of mice, Days after dosing 6 ([9]; Dose 1000 mg/kg): 0
Deaths of mice, Days after dosing 7 ([9]; Dose 1000 mg/kg): 0
Deaths of mice, Days after dosing 8 ([9]; Dose 1000 mg/kg): 0
Deaths of mice, Days after dosing 9 ([9]; Dose 1000 mg/kg): 0
Deaths of mice, Days after dosing 10 ([9]; Dose 1000 mg/kg): 0
Deaths of mice, Days after dosing 11 ([9]; Dose 1000 mg/kg): 0
Deaths of mice, Days after dosing 12 ([9]; Dose 1000 mg/kg): 0
Deaths of mice, Days after dosing 13 ([9]; Dose 1000 mg/kg): 0
Deaths of mice, Days after dosing 14 ([9]; Dose 1000 mg/kg): 0
Deaths of mice, Days after dosing 0 ([9]; Dose 2000 mg/kg): 0
Deaths of mice, Days after dosing 1 ([9]; Dose 2000 mg/kg): 0
Deaths of mice, Days after dosing 2 ([9]; Dose 2000 mg/kg): 0
Deaths of mice, Days after dosing 3 ([9]; Dose 2000 mg/kg): 0
Deaths of mice, Days after dosing 4 ([9]; Dose 2000 mg/kg): 0
Deaths of mice, Days after dosing 5 ([9]; Dose 2000 mg/kg): 0
Deaths of mice, Days after dosing 6 ([9]; Dose 2000 mg/kg): 0
Deaths of mice, Days after dosing 7 ([9]; Dose 2000 mg/kg): 0
Deaths of mice, Days after dosing 8 ([9]; Dose 2000 mg/kg): 0
Deaths of mice, Days after dosing 9 ([9]; Dose 2000 mg/kg): 0
Deaths of mice, Days after dosing 10 ([9]; Dose 2000 mg/kg): 0
Deaths of mice, Days after dosing 11 ([9]; Dose 2000 mg/kg): 0
Deaths of mice, Days after dosing 12 ([9]; Dose 2000 mg/kg): 0
Deaths of mice, Days after dosing 13 ([9]; Dose 2000 mg/kg): 0
Deaths of mice, Days after dosing 14 ([9]; Dose 2000 mg/kg): 0
